We go through 27 compounds from ChEMBL document CHEMBL1145925, “Carbonic anhydrase inhibitors: inhibition of transmembrane, tumor-associated isozyme IX, and cytosolic isozymes I and II with aliphatic sulfamates” (J Med Chem, 2003).

pKi: −log10 of the molar value. Several values for one entry are separate records, joined by “and”; a condition that tells them apart may be missing. Equal values may be shown once.

Some targets named below: Carbonic anhydrase 9 (Homo sapiens, UniProt Q16790); Carbonic anhydrase 1 (Homo sapiens, UniProt P00915); Carbonic anhydrase 2 (Homo sapiens, UniProt P00918).

Carbonic anhydrase 1, sequence (P00915 whole entry): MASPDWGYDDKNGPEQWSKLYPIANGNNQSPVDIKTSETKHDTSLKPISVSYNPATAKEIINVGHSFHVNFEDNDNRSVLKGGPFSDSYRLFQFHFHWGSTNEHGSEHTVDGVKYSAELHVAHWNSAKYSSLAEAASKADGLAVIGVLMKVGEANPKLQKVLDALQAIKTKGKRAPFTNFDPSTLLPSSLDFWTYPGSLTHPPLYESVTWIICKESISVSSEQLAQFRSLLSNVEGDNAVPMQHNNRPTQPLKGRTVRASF

The pKi is −log10 of the Ki, conventionally taken in molar units. Read a low pKi as a high Ki. As for `C#CCCOS(N)(=O)=O`, the pKi is 6.20 on Carbonic anhydrase 9, 3.00 on Carbonic anhydrase 1 and 5.23 at Carbonic anhydrase 2.

With `NS(=O)(=O)OCC1c2ccccc2-c2ccccc21`, the figures for the pKi on Carbonic anhydrase 9, at Carbonic anhydrase 1 and on Carbonic anhydrase 2 were below 6.00, 4.42 and 5.35, respectively.

With `NS(=O)(=O)OCC(F)(F)F`, the values for the pKi at Carbonic anhydrase 9, at Carbonic anhydrase 1 and on Carbonic anhydrase 2 were 6.34, 5.11 and 6.07, respectively.

As to `Cc1ccc(COS(N)(=O)=O)cc1`, the figures for the pKi at Carbonic anhydrase 9, at Carbonic anhydrase 1 and on Carbonic anhydrase 2 were 7.89, 7.00 and 8.57, respectively.

For `NS(=O)(=O)OCCCCl`, the pKi at Carbonic anhydrase 9 is below 6.00; on Carbonic anhydrase 1, 5.34; at Carbonic anhydrase 2, 6.24.

As for `C[C@]12CCC(OS(N)(=O)=O)CC1=C[C@@H](O)C1C2CC[C@]2(C)C(=O)CCC12` (stereo partly specified), the figures for the pKi at Carbonic anhydrase 9, at Carbonic anhydrase 1 and at Carbonic anhydrase 2 were 7.19, 6.40 and 7.89, respectively.

Consider `C=CCCOS(N)(=O)=O`, for which the values for the pKi on Carbonic anhydrase 9, on Carbonic anhydrase 1 and on Carbonic anhydrase 2 were 6.41, 3.10 and 6.05, respectively.

As for `CC(C)CCC[C@@H](C)[C@H]1CCC2C3CC=C4C[C@@H](OS(N)(=O)=O)CC[C@]4(C)C3CCC21` (stereo partly specified), the pKi at Carbonic anhydrase 9 was below 6.00; at Carbonic anhydrase 1 it was below 3.00; on Carbonic anhydrase 2 it was below 5.00.

In the case of `NS(=O)(=O)OC(C(F)(F)F)C(F)(F)F`, the pKi on Carbonic anhydrase 9 is 6.55; at Carbonic anhydrase 1, 5.45; at Carbonic anhydrase 2, 5.80.

In the case of `NS(=O)(=O)OCc1ccc(-c2ccccc2)cc1`, the pKi at Carbonic anhydrase 9 was below 6.00; at Carbonic anhydrase 1, below 3.00.

With `C[C@]12CCC(OS(N)(=O)=O)CC1=CC(=O)C1C2CC[C@]2(C)C(=O)CCC12` (stereo partly specified), the pKi is 7.12 on Carbonic anhydrase 9, 6.39 on Carbonic anhydrase 1 and 7.64 at Carbonic anhydrase 2.

As to `CCCCCCCCCCOS(N)(=O)=O` [DECYL SULFAMATE], the pKi at Carbonic anhydrase 9 was 7.64 and 6.85.

For `NS(=O)(=O)OCc1ccccc1` [SULFAMIC ACID BENZYL ESTER], the figures for the pKi at Carbonic anhydrase 9, at Carbonic anhydrase 1 and at Carbonic anhydrase 2 were 7.85, 6.12 and 8.47, respectively.

On to `CCCCOS(N)(=O)=O` [SULFAMIC ACID BUTYL ESTER], for which the negative logarithm of the Ki (pKi) was below 6.00 at Carbonic anhydrase 9, 5.51 at Carbonic anhydrase 1 and 7.15 at Carbonic anhydrase 2.

As for `NS(=O)(=O)OC1CCCCC1` [SULFAMIC ACID CYCLOHEXYL ESTER], the pKi on Carbonic anhydrase 9 is below 6.00; on Carbonic anhydrase 1, 4.23; on Carbonic anhydrase 2, 7.22.

For `NS(=O)(=O)OC1CCCC1` [SULFAMIC ACID CYCLOPENTYL ESTER], the pKi was below 6.00 on Carbonic anhydrase 9, below 3.00 at Carbonic anhydrase 1 and below 5.00 on Carbonic anhydrase 2.

For `CCCCCCCCCCCCOS(N)(=O)=O` [SULFAMIC ACID DODECYL ESTER], the pKi is 8.05 on Carbonic anhydrase 9, 6.57 at Carbonic anhydrase 1 and 8.00 at Carbonic anhydrase 2.

`CCOS(N)(=O)=O` [SULFAMIC ACID ETHYL ESTER]: the pKi at Carbonic anhydrase 9 is below 6.00; on Carbonic anhydrase 1 it was 4.42; at Carbonic anhydrase 2 it was 5.26.

On to `CCCCCCCCCCCCCCCCOS(N)(=O)=O` [SULFAMIC ACID HEXADECYL ESTER], for which the figures for the pKi at Carbonic anhydrase 1 and on Carbonic anhydrase 2 were 4.24 and 7.01, respectively.

For the compound `CC(C)OS(N)(=O)=O` [SULFAMIC ACID ISOPROPYL ESTER], the pKi was below 6.00 at Carbonic anhydrase 9, 3.16 at Carbonic anhydrase 1 and below 5.00 on Carbonic anhydrase 2.

Turning to `COS(N)(=O)=O` [SULFAMIC ACID METHYL ESTER], the figures for the pKi at Carbonic anhydrase 9, on Carbonic anhydrase 1 and on Carbonic anhydrase 2 were below 6.00, 4.40 and 5.22, respectively.

For the compound `CCCCCCCCCCCCCCCCCCOS(N)(=O)=O` [SULFAMIC ACID OCTADECYL ESTER], the pKi is 6.92 on Carbonic anhydrase 9, 4.19 at Carbonic anhydrase 1 and 6.89 at Carbonic anhydrase 2.

As for `CCCCCOS(N)(=O)=O` [SULFAMIC ACID PENTYL ESTER], the pKi at Carbonic anhydrase 1 was 6.15; at Carbonic anhydrase 2 it was 7.24.

As for `NS(=O)(=O)OCCc1ccccc1` [SULFAMIC ACID PHENETHYL ESTER], the pKi at Carbonic anhydrase 9 is 7.92; on Carbonic anhydrase 1, 6.39; at Carbonic anhydrase 2 it was 8.96.

As to `CCCOS(N)(=O)=O` [SULFAMIC ACID PROPYL ESTER], the pKi on Carbonic anhydrase 9 was below 6.00; at Carbonic anhydrase 1, 5.43; on Carbonic anhydrase 2, 6.12.

Consider `CCCCCCCCCCCCCCOS(N)(=O)=O` [SULFAMIC ACID TETRADECYL ESTER], for which the pKi at Carbonic anhydrase 9 was 7.82; on Carbonic anhydrase 1 it was 6.82; at Carbonic anhydrase 2, 7.06.

Regarding `CCCCCCCCCCCOS(N)(=O)=O` [SULFAMIC ACID UNDECYL ESTER], the figures for the negative-log Ki (pKi) at Carbonic anhydrase 9, on Carbonic anhydrase 1 and on Carbonic anhydrase 2 were 7.77, 6.37 and 8.33, respectively.
